# Measured values: PubChem BioAssay (NCI)
#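 Results reflect a 48-hour exposure of cells in 96-well plates to compound at five concentrations. Definition used: TGI = concentration required for complete inhibition of growth.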
# Columns and labels:
# Experiment in all cases: NCI tumour cell line growth inhibition, 48 h
# [1] = test system: SK-MEL-28 melanoma
# [2] = test system: COLO 205 colon
# [3] = test system: HS 578T breast
# [4] = test system: DU-145 prostate
# [5] = test system: BT-549 breast
# [6] = test system: HCT-15 colon
# [7] = test system: A549 NSCLC
# [8] = test system: K-562 leukemia
# [9] = test system: SNB-19 CNS
# [10] = test system: HCC-2998 colon
SMILES,TGI [1] [µM],TGI [2] [µM],TGI [3] [µM],TGI [4] [µM],TGI [5] [µM],TGI [6] [µM],TGI [7] [µM],TGI [8] [µM],TGI [9] [µM],TGI [10] [µM]
O=C(OCCN=c1c2ccccc2ccc2ccccc12)c1ccccc1,> 100,> 100,> 100,> 100,> 100,> 100,> 100,> 100,> 100,> 100
Cn1c(=O)c(-c2ccccc2)c(O)c2ccccc21,> 100,> 100,> 100,> 100,> 100,> 100,> 100,> 100,> 100,> 100
CO[C@H]1SC[C@H](OC(C)=O)[C@H](OC(C)=O)[C@H]1OC(C)=O,> 100,> 100,> 100,> 100,> 100,> 100,> 100,> 100,> 100,> 100
Cc1ccc2c(c1)-c1c(C#N)c(N)nc(-c3ccc(Cl)cc3)c1CCS2(=O)=O,> 100,31.3,64.6,> 100,> 100,> 100,> 100,7.02,> 100,> 100
O=C(O)c1cccc2cccc(-c3cccc4cccc(C(=O)O)c34)c12,> 100,> 100,> 100,> 100,> 100,> 100,> 100,> 100,> 100,> 100
O=c1c(Cc2ccc(Cl)cc2)nnc2sc(-c3ccc(-c4ccc(F)c(Cl)c4)o3)nn12,> 100,> 100,> 100,> 100,> 100,> 100,> 100,> 100,> 100,> 100
O=[N+]([O-])c1ccc(NC(=S)N=Nc2c(O)[nH]c3ccc([N+](=O)[O-])cc23)cc1,80.7,> 100,> 100,49,33.7,46.8,48.1,> 100,69.3,35.9
CCC(CO)Nc1nc(NCc2ccccc2)c2ncn(C(C)C)c2n1 (stereo not given),34.4,34.1,27.3,> 100,> 55.3,> 100,> 100,> 100,> 100,34.7
COC(=O)C1C(C(=O)OC)C2(OC(c3ccc(Cl)cc3)=CC2=O)C12OC(c1ccc(Cl)cc1)=CC2=O (stereo not given),> 100,34.6,> 100,> 100,42.5,35.2,> 100,53.5,> 100,36.8
CCCCSc1nsc(N(C(=O)c2ccccc2)C(=O)c2ccccc2)n1,> 100,41.5,89.7,> 100,92.1,> 100,> 100,99.7,> 100,74.4
CC1C(NNc2ccccc2)Oc2cc3c(cc2C1c1ccccc1O)OCO3 (stereo not given),26.6,24.5,42.7,15.1,27.4,15.2,15.2,4.34,27.4,17
COC(=O)Cc1ccc2c(cnn2-c2ccccc2)c1OC,> 10,> 10,> 10,> 10,> 10,> 10,> 10,> 10,> 10,> 10
CSc1nc(NC(C)C)c2c(n1)Sc1nc3ccccc3n1N=C2,> 100,> 100,54.5,31.3,> 100,> 100,38.6,> 100,39,25.3
C=C1C(OC2O[C@@H]3O[C@@]4(C)CC[C@H]5[C@H](C)CC[C@@H](C2=C)[C@@]35O4)O[C@@H]2O[C@@]3(C)CC[C@H]4[C@H](C)CC[C@@H]1[C@@]24O3 (stereo not given in full),> 50,> 50,> 50,> 50,> 50,> 50,> 50,> 50,> 50,> 50
N#CC1(O)CCCCCCCCCCC1,> 100,> 100,> 100,> 100,> 100,> 100,> 100,> 100,> 100,> 100
CC1CCC2(NC1)OC1CC3C4CC=C5CC(OC6OC(CO)C(OC7OC(C)C(O)C(O)C7O)C(O)C6OC6OC(C)C(O)C(O)C6O)CCC5(C)C4CCC3(C)C1C2C (stereo not given),4.41,35.4,15.6,8.61,30.3,16.9,9.59,28.7,28.3,4.72
C=C(C)OCOCCOC,> 100,> 100,> 100,> 100,> 100,> 100,> 100,> 100,> 100,> 100

SMILES,TGI [1] [µM],TGI [2] [µM],TGI [3] [µM],TGI [4] [µM],TGI [5] [µM],TGI [6] [µM],TGI [7] [µM],TGI [8] [µM],TGI [9] [µM],TGI [10] [µM]
CC(C)c1cccc(C(C)C)c1NC(=O)/C(CC(=O)CC(c1ccccc1)c1c(O)c2ccccc2oc1=O)=N/O (stereo not given),> 100,> 100,> 100,> 100,> 100,> 100,> 100,> 100,> 100,> 100
O=C(/C=C/C(=O)N1CCCC1)N1CCCC1,> 100,> 100,> 100,> 100,> 100,> 100,> 100,> 100,> 100,> 100
S=C(N/N=C\C(=N/NC(=S)N1CCCCC1)c1ccccc1)N1CCCCC1,3.65,3.86,5.23,3.02,3.57,5.1,5.62,> 100,3.84,3.9
Cc1cc2c(O)c(c1)CN(CC(=O)O)Cc1cc(C)cc(c1O)CN(CC(=O)O)Cc1cc(C)cc(c1O)CN(CC(=O)O)C2,> 100,> 100,> 100,> 100,> 100,> 100,> 100,> 100,> 100,> 100
CN1C(=O)N(C)C(O)C(Cl)(Br)C1=O (stereo not given),> 100,> 100,> 100,> 100,> 100,> 100,> 100,> 100,> 100,> 100
Cc1cc2ncn(C3CCCCO3)c2cc1C (stereo not given),> 100,> 100,> 100,> 100,> 100,> 100,> 100,> 100,> 100,> 100
C/C=C(/C)C(=O)OC1CC(C)[C@H]2CC(=O)C(C)=C2CC1C(C)(C)OC(C)=O (stereo not given in full),> 100,43.8,> 100,> 100,85.4,> 100,> 100,> 100,> 100,72.1
Cc1[nH]c(=O)nc(NCCNCCO)c1C(=O)Nc1cccc2cc3ccccc3cc12,> 100,> 100,> 100,> 100,> 100,> 100,> 100,> 100,> 100,> 100
O=C1C=CC(=O)c2c(O)c(N3CCC[C@H]3CO)c(Cl)c(O)c21,2.23,3.22,> 8.27,> 6.32,> 10,4.15,> 10,1.87,> 10,> 6.61
Cc1cc(C)c2c(=O)cc(-c3cccc(F)c3)[nH]c2n1,92.9,0.354,3.36,> 45.3,> 22,> 38.2,> 100,> 32.1,> 100,3.94
CN(C)CC1CCC/C(=C\c2ccc(OC(=O)c3ccc(Cl)cc3)cc2)C1=O (stereo not given),8.52,4.81,10.3,6.79,7.55,3.3,7.26,3.8,13.7,> 29
C[C@]12CCC(=O)[C@@H](CCC3=CC(=O)C=CC3=O)[C@@H]1CCC2=O,37.1,31.2,43.6,40.8,30.2,> 31.6,> 54.5,> 100,> 100,31.4
CC1=NN(c2nc(N)nc(-c3sccc3N)n2)C(C)(C)C1,> 100,> 100,> 100,> 100,> 100,> 100,> 100,> 100,> 100,> 100
COc1ccc(C2C3=C(COC3=O)Oc3cc4c(cc32)OCO4)c(OC)c1 (stereo not given),> 100,> 100,98.3,> 100,> 100,> 100,> 100,87.3,> 100,> 100
CCn1c2ccc(C(=O)CCCN3CCCCC3)cc2c2cc(C(=O)CCCN3CCCCC3)ccc21,34.8,15.7,7.06,18.2,35,5.45,3.86,> 22.6,10.6,23.8
COc1ccc(-c2c3c(n(C4OC(CO)C(O)C(O)C4O)c(=S)c2C#N)CCC3)cc1 (stereo not given),> 100,> 100,> 100,> 100,> 100,> 100,> 100,> 100,> 100,> 100
CC(C)C(CC(=O)OCC(CO)OC(=O)CC(C(C)C)C(C)C)C(C)C (stereo not given),30.3,20,21.5,28.7,33.1,30.7,24,33,28.4,30.9
